Like-named read-outs stand apart in the source and are kept apart here.
Tested on: Bezold-Jarisch reflux
Test: Inhibition of Bezold-Jarisch reflux (2-methyl-5-hydroxytryptamine-induced bradycardia in anesthetized rats)
Type: in vivo
Conditions: test compound iv, 5-minutes interval, then 2-methyl-5-hydroxytryptamine 32 μg/kg iv, urethane-anesthetized male Sprague-Dawley rats, bradycardic response
Procedure: Inhibition of Bezold-Jarisch reflux
Male Sprague-Dawley rats weighing 260-350 g were anesthetized intraperitoneally with 1.25 g/kg urethane.
Blood pressure and heart rate were monitored continuously from the left common carotid artery with a pressure transducer. A right femoral vein was cannulated for the intravenous injection (iv) of drugs. The trachea was also cannulated to ease the respiration.
Rats were given a rapid bolus injection of 2-methyl-5-hydroxytryptamine (32 μg/kg, iv) to establish the control bradycardic response. Once the heart rate returned to base line, the rats were given the test compound (iv), followed by 5-minutes interval and another bolus injection of 2-methyl-5-hydroxytryptamine (32 μg/kg, iv).

## Cc1[nH]cnc1C(C)N1CCc2c(C)c3ccccc3n2C1=O.Cl (centres unmarked) [Compound 2, 3,4-Dihydro-5-methyl-2-[1-(5-methyl-1H-imidazol-4-yl)ethyl]pyrimido[1,6-a]indol-1(2H)-one hydrochloride]
Rattus norvegicus, 5 min, read-out: ED50
  ED50: 1.5 µg/kg

## 3,4-dihydro-5-methyl-2-[(5-methyl-1-trityl-1H-imidazol-4-yl)methyl]pyrimido[1,6-a]indol-1 (2H)-one [Example 1]
  ED50: 0.56 µg/kg

Reference: US5256780A, “Pyrimidoindole derivatives and processes for preparation thereof” (Fujisawa Pharmaceutical Co., Ltd., priority 1989, dated 1993)
